pIC50: −log10 of the molar value. Where two headings read alike, the source gives them in different places.
Molecular target: EBI2 (Homo sapiens, UniProt P32249)
Experiment: Cell-based luminescent assay (EBI2 modulation)
Outline: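 Cells plated overnight at 37° C, then exposed to compound at 4-5 uM final with 80 nM 7a,25-OHC agonist for 60 min at 37° C. Luminescence read after 60 min detection at 25° C in the dark; values normalized to neutral and stimulator controls and plate-pattern corrected.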

[1] = cell-based luminescence, 7a,25-OHC final assay concentration 80 nM, 60 minutes incubation, read-out: IC50

Chain of EBI2 (P32249 whole entry): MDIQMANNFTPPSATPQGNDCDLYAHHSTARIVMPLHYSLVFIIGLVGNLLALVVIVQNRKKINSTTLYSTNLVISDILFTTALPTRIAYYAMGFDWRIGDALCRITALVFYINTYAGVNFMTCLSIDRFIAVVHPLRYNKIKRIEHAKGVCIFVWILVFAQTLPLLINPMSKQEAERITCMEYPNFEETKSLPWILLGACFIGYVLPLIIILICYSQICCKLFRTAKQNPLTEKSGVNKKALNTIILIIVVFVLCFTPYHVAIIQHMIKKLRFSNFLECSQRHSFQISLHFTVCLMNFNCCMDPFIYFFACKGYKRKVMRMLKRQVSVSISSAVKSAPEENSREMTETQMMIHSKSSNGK

| SMILES | pIC50 [1] | pIC50 |
| --- | --- | --- |
| O=C(c1cc[nH]c1)N1CCN(C(=O)c2cc3cc(Cl)ccc3[nH]2)CC1 [Compound C163, 5-chloroindol-2-yl 4-(pyrrol-3-ylcarbonyl)piperazinyl ketone] | 5.30 to 6.30 |  |
| O=C(c1ccc(Br)cc1)N1CCN(Cc2ccc(F)cc2C(F)(F)F)CC1 [Compound C164, 4-bromophenyl 4-{[4-fluoro-2-(trifluoromethyl)phenyl]methyl}piperazinyl ketone] | 5.30 to 6.30 |  |
| O=C(c1ccc(Br)cc1)N1CCN(Cc2ccc(F)cc2)CC1 [Compound C165, 4-bromophenyl 4-[(4-fluorophenyl)methyl]piperazinyl ketone] | 5.30 to 6.30 |  |
| O=C(C#Cc1ccc(F)cc1F)N1CCN(C(=O)c2ccc(C(F)(F)F)cc2)CC1 [Compound C166, 3-(2,4-difluorophenyl)-1-(4-{[4-(trifluoromethyl)phenyl]carbonyl}piperazinyl)prop-2-yn-1-one] | 5.30 to 6.30 |  |
| O=C(C=Cc1ccc2c(c1)OCO2)N1CCN(Cc2ccc(C(F)(F)F)cc2)CC1 [Compound C167, 3-(2H-benzo[3,4-d]1,3-dioxolan-5-yl)-1-(4-{[4-(trifluoromethyl)phenyl]methyl}piperazinyl)prop-2-en-1-one] | 5.30 to 6.30 |  |
| O=C(c1nc2ccccc2s1)N1CCN(C(c2ccccc2)c2ccccc2)CC1 [Compound C168, benzothiazol-2-yl 4-(diphenylmethyl)piperazinyl ketone] | 5.30 to 6.30 |  |
| O=C(C#Cc1ccccc1C(F)(F)F)N1CCN(C(=O)c2ccc(C(F)(F)F)cc2)CC1 [Compound C169, 3-[2-(trifluoromethyl)phenyl]-1-(4-{[4-(trifluoromethyl)phenyl]carbonyl}piperazinyl)prop-2-yn-1-one] | 5.30 to 6.30 |  |
| O=C(C#Cc1ccc(Cl)c(Cl)c1)N1CCN(Cc2ccc(C(F)(F)F)cc2)CC1 [Compound C171, 3-(3,4-dichlorophenyl)-1-(4-{[4-(trifluoromethyl)phenyl]methyl}piperazinyl)prop-2-yn-1-one] | 5.30 to 6.30 |  |
| Cn1c(C(=O)N2CCN(C(c3ccccc3)c3ccccc3)CC2)cc2ccsc21 [Compound C173, 4-(diphenylmethyl)piperazinyl 6-methylthiopheno[3,2-d]pyrrol-5-yl ketone] | 5.30 to 6.30 |  |
| O=C(/C=C/c1cc(Br)ccc1F)N1CCN(S(=O)(=O)c2ccc(Br)cc2)CC1 [Compound C174, (2E)-3-(5-bromo-2-fluorophenyl)-1-{4-[(4-bromophenyl)sulfonyl]piperazinyl}prop-2-en-1-one] | 5.30 to 6.30 |  |
| O=C(c1cnc2ccccc2c1)N1CCN(Cc2ccc(Cl)cc2)CC1 [Compound C175, 4-[(4-chlorophenyl)methyl]piperazinyl 3-quinolyl ketone] | 5.30 to 6.30 |  |
| O=C(O)c1ccc(CN2CCN(C(=O)c3cc4cc(Cl)ccc4[nH]3)CC2)cc1 [Compound C177, 4-({4-[(5-chloroindol-2-yl)carbonyl]piperazinyl}methyl)benzoic acid] | 5.30 to 6.30 |  |
| O=C(c1cc2cccc([N+](=O)[O-])c2[nH]1)N1CCN(C(c2ccccc2)c2ccccc2)CC1 [Compound C178, 4-(diphenylmethyl)piperazinyl 7-nitroindol-2-yl ketone] | 5.30 to 6.30 |  |
| O=C(C#Cc1ccc(F)cc1)N1CCN(Cc2ccc(F)cc2C(F)(F)F)CC1 [Compound C179, 3-(4-fluorophenyl)-1-(4-{[4-fluoro-2-(trifluoromethyl)phenyl]methyl}piperazinyl)prop-2-yn-1-one] | 5.30 to 6.30 |  |
| O=C(c1cc2ccc(Br)cc2[nH]1)N1CCN(Cc2ccc(Br)cc2)CC1 [Compound C180, 6-bromoindol-2-yl 4-[(4-bromophenyl)methyl]piperazinyl ketone] | 5.30 to 6.30 |  |
| O=C(Nc1ccc(F)cc1)c1ccc(CN2CCN(C(=O)c3cc4cc(Cl)ccc4[nH]3)CC2)cc1 [Compound C181, [4-({4-[(5-chloroindol-2-yl)carbonyl]piperazinyl}methyl)phenyl]-N-(4-fluorophenyl)carboxamide] | 5.30 to 6.30 |  |
| O=C(c1cc2cc(Cl)ccc2[nH]1)N1CCN(c2ccccn2)CC1 [Compound C182, 5-chloroindol-2-yl 4-(2-pyridyl)piperazinyl ketone] | 5.30 to 6.30 |  |
| O=C(c1ccc2nc(C(F)(F)F)[nH]c2c1)N1CCN(C(=O)c2cc3cc(Cl)ccc3[nH]2)CC1 [Compound C183, 5-chloroindol-2-yl 4-{[2-(trifluoromethyl)benzimidazol-5-yl]carbonyl}piperazinyl ketone] | 5.30 to 6.30 |  |
| O=C(NC1CCN(C(=O)c2cc3cc(Cl)ccc3[nH]2)CC1)c1ccc(Cl)cc1 [Compound C184, N-{1-[(5-chloroindol-2-yl)carbonyl](4-piperidyl)}(4-chlorophenyl)carboxamide] | 5.30 to 6.30 |  |
| Cc1c(C(=O)N2CCN(C(c3ccccc3)c3ccccc3)CC2)sc2ccccc12 [Compound C185, 4-(diphenylmethyl)piperazinyl 3-methylbenzo[b]thiophen-2-yl ketone] | 5.30 to 6.30 |  |

| SMILES | pIC50 [1] | pIC50 |
| --- | --- | --- |
| O=C(C=Cc1ccc2c(c1)OCO2)N1CCN(Cc2ccc(F)cc2C(F)(F)F)CC1 [Compound C186, 3-(2H-benzo[3,4-d]1,3-dioxolan-5-yl)-1-(4-{[4-fluoro-2-(trifluoromethyl)phenyl]methyl}piperazinyl)prop-2-en-1-one] | 5.30 to 6.30 |  |
| O=C(Nc1ccc(F)cc1)c1cccc(CN2CCN(C(=O)c3cc4cc(Cl)ccc4[nH]3)CC2)c1 [Compound C187, [3-({4-[(5-chloroindol-2-yl)carbonyl]piperazinyl}methyl)phenyl]-N-(4-fluorophenyl)carboxamide] | 5.30 to 6.30 |  |
| O=C(O)c1cccc(CN2CCN(C(=O)c3cc4cc(Cl)ccc4[nH]3)CC2)c1 [Compound C188, 3-({4-[(5-chloroindol-2-yl)carbonyl]piperazinyl}methyl)benzoic acid] | 5.30 to 6.30 |  |
| O=C(c1cc2ccc(F)cc2[nH]1)N1CCN(C(=O)c2ccc(F)cc2C(F)(F)F)CC1 [Compound C189, 6-fluoroindol-2-yl 4-{[4-fluoro-2-(trifluoromethyl)phenyl]carbonyl}piperazinyl ketone] | 5.30 to 6.30 |  |
| CC(C)(C)c1ccc(S(=O)(=O)N2CCN(C(=O)/C=C/c3ccccc3F)CC2)cc1 [Compound C190, (2E)-1-(4-{[4-(tert-butyl)phenyl]sulfonyl}piperazinyl)-3-(2-fluorophenyl)prop-2-en-1-one] | 5.30 to 6.30 |  |
| O=C(/C=C/c1ccccc1)N1CCN(Cc2ccccn2)CC1 [Compound C191, (2E)-3-phenyl-1-[4-(2-pyridylmethyl)piperazinyl]prop-2-en-1-one] | 5.30 to 6.30 |  |
| O=C(/C=C/c1ccc(F)cc1)N1CCCN(C(c2ccccc2)c2ccccc2)CC1 [Compound C192, (2E)-1-[4-(diphenylmethyl)(1,4-diazaperhydroepinyl)]-3-(4-fluorophenyl)prop-2-en-1-one] | 5.30 to 6.30 |  |
| O=C(c1cc2ncccc2[nH]1)N1CCN(C(c2ccccc2)c2ccccc2)CC1 [Compound C193, 4-(diphenylmethyl)piperazinyl pyrrolo[4,5-b]pyridin-2-yl ketone] | 5.30 to 6.30 |  |
| O=C(c1ccc(P(=O)(O)O)cc1)N1CCN(C(=O)c2cc3cc(Cl)ccc3[nH]2)CC1 [Compound C194, 5-chloroindol-2-yl 4-[(4-phosphonophenyl)carbonyl]piperazinyl ketone] | 5.30 to 6.30 |  |
| O=C(C#Cc1cc(F)cc(F)c1)N1CCN(Cc2ccc(C(F)(F)F)cc2)CC1 [Compound C195, 3-(3,5-difluorophenyl)-1-(4-{[4-(trifluoromethyl)phenyl]methyl}piperazinyl)prop-2-yn-1-one] | 5.30 to 6.30 |  |
| Cc1ccccc1/C=C/C(=O)N1CCN(S(=O)(=O)c2ccccc2)CC1 [Compound C196, (2E)-3-(2-methylphenyl)-1-[4-(phenylsulfonyl)piperazinyl]prop-2-en-1-one] | 5.30 to 6.30 |  |
| O=C(C#Cc1cc(F)cc(F)c1)N1CCN(Cc2ccc(F)cc2)CC1 [Compound C197, 3-(3,5-difluorophenyl)-1-{4-[(4-fluorophenyl)methyl]piperazinyl}prop-2-yn-1-one] | 5.30 to 6.30 |  |
| O=C(/C=C/c1ccc(F)cc1)N1CCCN(S(=O)(=O)/C=C/c2ccccc2)CC1 [Compound C198, (2E)-1-{4-[((1E)-2-phenylvinyl)sulfonyl](1,4-diazaperhydroepinyl)}-3-(4-fluorophenyl)prop-2-en-1-one] | 5.30 to 6.30 |  |
| O=C(c1cc2cc(Cl)ccc2[nH]1)N1CCC(N2CCOCC2)CC1 [Compound C199, 5-chloroindol-2-yl 4-morpholin-4-ylpiperidyl ketone] | 5.30 to 6.30 |  |
| O=C(c1ccc(C(F)(F)F)c(F)c1)N1CCN(C(=O)c2cc3cc(C(F)(F)F)ccc3[nH]2)CC1 [Compound C200, 4-{[3-fluoro-4-(trifluoromethyl)phenyl]carbonyl}piperazinyl 5-(trifluoromethyl)indol-2-yl ketone] | > 7.00 |  |
| Cc1cccc(CN2CCN(C(=O)/C=C/c3ccccc3)CC2)c1 [Compound C201, (2E)-1-{4-[(3-methylphenyl)methyl]piperazinyl}-3-phenylprop-2-en-1-one] |  | > 7.00 |
| CC(C)(C)c1ccc(S(=O)(=O)N2CCN(C(=O)/C=C/c3ccc(F)cc3)CC2)cc1 [Compound C202, (2E)-1-(4-{[4-(tert-butyl)phenyl]sulfonyl}piperazinyl)-3-(4-fluorophenyl)prop-2-en-1-one] | > 7.00 |  |
| O=C(/C=C/c1ccccc1)N1CCN(Cc2ccc(Br)cc2)CC1 [Compound C203, (2E)-1-{4-[(4-bromophenyl)methyl]piperazinyl}-3-phenylprop-2-en-1-one] | > 7.00 |  |
| O=C(c1ccc(-c2nnn[nH]2)cc1)N1CCN(C(=O)c2cc3cc(Cl)ccc3[nH]2)CC1 [Compound C204, 5-chloroindol-2-yl 4-[(4-(1H-1,2,3,4-tetraazol-5-yl)phenyl)carbonyl]piperazinyl ketone] | > 7.00 |  |
| O=C(/C=C/c1ccc(F)cc1)N1CCN(S(=O)(=O)c2ccccc2)CC1 [Compound C205, (2E)-3-(4-fluorophenyl)-1-[4-(phenylsulfonyl)piperazinyl]prop-2-en-1-one] | > 7.00 |  |
